Experimental data reported in ChEMBL document CHEMBL3272133, “1-[4-(4-Chlorophenyl)-2-(2,6-dichlorophenylthio)-n-butyl]-1H-imidazole nitrate, a new potent antifungal agent” (J Med Chem, 1978).
The source made the active and inactive calls. The calls are words filed in the database; no cut-off is given here.

How the values were obtained:
Candida albicans [1] = test: Antifungal activity against Candida albicans infected in mouse assessed as noninfected animals at 0.25% formulation in neat PEG 400 solution administered vaginally bid for 4 days measured on day 7 relative to placebo; assay type: functional
[2] = test system: Trichophyton mentagrophytes; test: Antifungal activity against Trichophyton mentagrophytes infected in guinea pig assessed as noninfected animals at 0.5% formulation in steryl alcohol, cetyl alcohol, Span 60, Tween 60, propylene glycol, mineral oil, and water administered qd for 5 days measured on day 4; assay type: functional
Salmonella typhimurium [3] = test: Mutagenic activity in Salmonella typhimurium TA-1538 at 0.1 to 100 ug/plate by Ames assay; assay type: toxicity, organism-based; settings: salmonella enterica subsp. enterica serovar typhimurium
[4] = test system: Trichophyton mentagrophytes; test: Antifungal activity against Trichophyton mentagrophytes infected in guinea pig assessed as noninfected animals at 0.5% formulation in steryl alcohol, cetyl alcohol, Span 60, Tween 60, propylene glycol, mineral oil, and water administered qd for 5 days measured on day 7; assay type: functional
Salmonella typhimurium [5] = test: Mutagenic activity in Salmonella typhimurium TA-1537 at 0.1 to 100 ug/plate by Ames assay; assay type: toxicity, organism-based; settings: salmonella enterica subsp. enterica serovar typhimurium
Candida albicans [6] = test: Antifungal activity against Candida albicans infected in mouse assessed as noninfected animals at 1% formulation in neat PEG 400 solution administered vaginally bid for 4 days measured 6 hrs post last dose relative to placebo; assay type: functional
Candida albicans [7] = test: Antifungal activity against Candida albicans ATCC 10231 assessed as growth inhibition by broth dilution method; assay type: functional
Salmonella typhimurium [8] = test: Mutagenic activity in Salmonella typhimurium TA-98 at 0.1 to 100 ug/plate by Ames assay; assay type: toxicity, organism-based; settings: salmonella enterica subsp. enterica serovar typhimurium
[9] = test system: Trichophyton mentagrophytes; test: Antifungal activity against Trichophyton mentagrophytes assessed as growth inhibition by agar dilution method; assay type: functional
Saccharomyces cerevisiae [10] = test: Mutagenic activity in Saccharomyces cerevisiae D4 at 0.1 ug/plate by Ames assay; assay type: organism-based
Saccharomyces cerevisiae [11] = test: Toxicity in Saccharomyces cerevisiae D4 at 500 ug/plate; assay type: organism-based; settings: in vivo
Trichophyton tonsurans = test: Antifungal activity against Trichophyton tonsurans assessed as growth inhibition by agar dilution method; assay type: functional
Saccharomyces cerevisiae [12] = test: Mutagenic activity in Saccharomyces cerevisiae D4 at 0.1 ug/plate by Ames assay in presence of rat liver microsomal enzyme preparation; assay type: toxicity, organism-based; settings: microsomes
Trichophyton rubrum = test: Antifungal activity against Trichophyton rubrum assessed as growth inhibition by agar dilution method; assay type: functional
Candida albicans [13] = test: Antifungal activity against Candida albicans infected in mouse assessed as noninfected animals at 0.25 to 4% formulation in neat PEG 400 solution administered vaginally bid for 4 days measured on day 21; assay type: functional, organism-based
Candida albicans [14] = test: Antifungal activity against mixed infection of Candida albicans infected in mouse assessed as noninfected animals at 0.2% formulation administered vaginally bid for 4 days measured on day 7 relative to placebo; assay type: functional
[15] = Acute toxicity in po dosed female rat; assay type: organism-based; settings: in vivo
[16] = test system: Trichophyton mentagrophytes; test: Antifungal activity against Trichophyton mentagrophytes infected in guinea pig assessed as noninfected animals at 0.5% formulation in steryl alcohol, cetyl alcohol, Span 60, Tween 60, propylene glycol, mineral oil, and water administered qd for 5 days measured on day 14; assay type: functional
Candida albicans [17] = test: Antifungal activity against Candida albicans ATCC 14053 assessed as growth inhibition by broth dilution method; assay type: functional
Microsporum canis = test: Antifungal activity against Microsporum canis assessed as growth inhibition by agar dilution method; assay type: functional
Candida albicans [18] = test: Antifungal activity against mixed infection of Candida albicans infected in mouse assessed as noninfected animals at 1% formulation in modified PEG 400 solution administered vaginally bid for 4 days measured on day 7 relative to placebo; assay type: functional
Salmonella typhimurium [19] = test: Toxicity in Salmonella typhimurium TA-100 at 500 ug/plate; assay type: organism-based; settings: salmonella enterica subsp. enterica serovar typhimurium
Salmonella typhimurium [20] = test: Mutagenic activity in Salmonella typhimurium TA-100 at 0.1 to 100 ug/plate by Ames assay in presence of rat liver microsomal enzyme preparation; assay type: toxicity, organism-based; settings: salmonella enterica subsp. enterica serovar typhimurium, microsomes
Staphylococcus aureus [21] = test: Antibacterial activity against Staphylococcus aureus No. 6538 P assessed as growth inhibition by broth microdilution method; assay type: functional
Enterococcus faecalis = test: Antibacterial activity against Streptococcus faecalis No. 8043-2 assessed as growth inhibition by broth microdilution method; assay type: functional
[22] = Acute toxicity in ip dosed mouse; assay type: organism-based; settings: in vivo
Salmonella typhimurium [23] = test: Toxicity in Salmonella typhimurium TA-1538 at 500 ug/plate; assay type: organism-based; settings: salmonella enterica subsp. enterica serovar typhimurium
Candida albicans [24] = test: Antifungal activity against mixed infection of Candida albicans infected in mouse assessed as noninfected animals at 0.5% formulation administered vaginally bid for 4 days measured 6 hrs post last dose relative to placebo; assay type: functional
Candida albicans [25] = test: Antifungal activity against Candida albicans infected in mouse assessed as noninfected animals at 2% formulation in neat PEG 400 solution administered vaginally bid for 4 days measured 6 hrs post last dose relative to placebo; assay type: functional
Candida albicans [26] = test: Antifungal activity against mixed infection of Candida albicans infected in mouse assessed as noninfected animals at 1% formulation administered vaginally bid for 4 days measured on day 7 relative to placebo; assay type: functional
Candida albicans [27] = test: Antifungal activity against mixed infection of Candida albicans infected in mouse assessed as noninfected animals at 0.1% formulation administered vaginally bid for 4 days measured on day 7 relative to placebo; assay type: functional
[28] = Acute toxicity in po dosed male rat; assay type: organism-based; settings: in vivo
Salmonella typhimurium [29] = test: Mutagenic activity in Salmonella typhimurium TA-98 at 0.1 to 100 ug/plate by Ames assay in presence of rat liver microsomal enzyme preparation; assay type: toxicity, organism-based; settings: salmonella enterica subsp. enterica serovar typhimurium, microsomes
Salmonella typhimurium [30] = test: Toxicity in Salmonella typhimurium TA-1535 at 500 ug/plate; assay type: organism-based; settings: salmonella enterica subsp. enterica serovar typhimurium
Salmonella typhimurium [31] = test: Mutagenic activity in Salmonella typhimurium TA-1538 at 0.1 to 100 ug/plate by Ames assay in presence of rat liver microsomal enzyme preparation; assay type: toxicity, organism-based; settings: salmonella enterica subsp. enterica serovar typhimurium, microsomes
Candida albicans [32] = test: Antifungal activity against mixed infection of Candida albicans infected in mouse assessed as noninfected animals at 0.2% formulation administered vaginally bid for 4 days measured 6 hrs post last dose relative to placebo; assay type: functional
Candida albicans [33] = test: Antifungal activity against Candida albicans infected in mouse assessed as noninfected animals at 1% formulation in neat PEG 400 solution administered vaginally bid for 4 days measured on day 7 relative to placebo; assay type: functional
Streptococcus pyogenes = test: Antibacterial activity against Streptococcus pyogenes No. 8668 assessed as growth inhibition by broth microdilution method; assay type: functional
Nannizzia gypsea = test: Antifungal activity against Microsporum gypseum assessed as growth inhibition by agar dilution method; assay type: functional
Candida albicans [34] = test: Antifungal activity against Candida albicans infected in mouse assessed as noninfected animals at 2% formulation in neat PEG 400 solution administered vaginally bid for 4 days measured on day 7 relative to placebo; assay type: functional
Salmonella typhimurium [35] = test: Toxicity in Salmonella typhimurium TA-1537 at 500 ug/plate; assay type: organism-based; settings: salmonella enterica subsp. enterica serovar typhimurium
Candida albicans [36] = test: Antifungal activity against mixed infection of Candida albicans infected in mouse assessed as noninfected animals at 1% formulation administered vaginally bid for 4 days measured 6 hrs post last dose relative to placebo; assay type: functional
Salmonella typhimurium [37] = test: Mutagenic activity in Salmonella typhimurium TA-1535 at 0.1 to 100 ug/plate by Ames assay; assay type: toxicity, organism-based; settings: salmonella enterica subsp. enterica serovar typhimurium
Salmonella typhimurium [38] = test: Mutagenic activity in Salmonella typhimurium TA-1535 at 0.1 to 100 ug/plate by Ames assay in presence of rat liver microsomal enzyme preparation; assay type: toxicity, organism-based; settings: salmonella enterica subsp. enterica serovar typhimurium, microsomes
Salmonella typhimurium [39] = test: Mutagenic activity in Salmonella typhimurium TA-100 at 0.1 to 100 ug/plate by Ames assay; assay type: toxicity, organism-based; settings: salmonella enterica subsp. enterica serovar typhimurium
Salmonella typhimurium [40] = test: Toxicity in Salmonella typhimurium TA-98 at 500 ug/plate; assay type: organism-based; settings: salmonella enterica subsp. enterica serovar typhimurium
[41] = Acute toxicity in po dosed mouse; assay type: organism-based; settings: in vivo
[42] = Antifungal activity against Trichophyton concentricum assessed as growth inhibition by agar dilution method; assay type: functional
Cryptococcus neoformans = test: Antifungal activity against Cryptococcus neoformans assessed as growth inhibition by broth dilution method; assay type: functional
Epidermophyton floccosum = test: Antifungal activity against Epidermophyton floccosum assessed as growth inhibition by agar dilution method; assay type: functional
Candida albicans [43] = test: Antifungal activity against Candida albicans infected in mouse assessed as noninfected animals at 0.5% formulation in neat PEG 400 solution administered vaginally bid for 4 days measured 6 hrs post last dose relative to placebo; assay type: functional
Staphylococcus aureus [44] = test: Antibacterial activity against Staphylococcus aureus No. 14154 assessed as growth inhibition by broth microdilution method; assay type: functional
Candida albicans [45] = test: Antifungal activity against mixed infection of Candida albicans infected in mouse assessed as noninfected animals at 0.1% formulation administered vaginally bid for 4 days measured 6 hrs post last dose relative to placebo; assay type: functional
Candida albicans [46] = test: Antifungal activity against Candida albicans infected in mouse assessed as noninfected animals at 0.25% formulation in neat PEG 400 solution administered vaginally bid for 4 days measured 6 hrs post last dose relative to placebo; assay type: functional
[47] = Acute toxicity in ip dosed rat; assay type: organism-based; settings: in vivo
Candida albicans [48] = test: Antifungal activity against Candida albicans infected in mouse assessed as noninfected animals at 0.5% formulation in neat PEG 400 solution administered vaginally bid for 4 days measured on day 7 relative to placebo; assay type: functional
Candida albicans [49] = test: Antifungal activity against mixed infection of Candida albicans infected in mouse assessed as noninfected animals at 0.5% formulation administered vaginally bid for 4 days measured on day 7 relative to placebo; assay type: functional
Salmonella typhimurium [50] = test: Mutagenic activity in Salmonella typhimurium TA-1537 at 0.1 to 100 ug/plate by Ames assay in presence of rat liver microsomal enzyme preparation; assay type: toxicity, organism-based; settings: salmonella enterica subsp. enterica serovar typhimurium, microsomes

Clc1ccc(CCC(Cn2ccnc2)Sc2c(Cl)cccc2Cl)cc1.O=[N+]([O-])O (stereo not given) [BUTOCONAZOLE NITRATE]
Activity (Candida albicans [1]): 75%
Activity [2]: 60%
Activity (Salmonella typhimurium [3]): Non-toxic
Activity [4]: 90%
Activity (Salmonella typhimurium [5]): Non-toxic
Activity (Candida albicans [6]): 90%
GI (Candida albicans [7]): 30 µg/mL
Activity (Salmonella typhimurium [8]): Non-toxic
GI [9]: 1 µg/mL
Activity (Saccharomyces cerevisiae [10]): Non-toxic
Activity (Saccharomyces cerevisiae [11]): Toxic
GI (Trichophyton tonsurans): 5 µg/mL
Activity (Saccharomyces cerevisiae [12]): Non-toxic
GI (Trichophyton rubrum): 0.05 µg/mL
Activity (Candida albicans [13]): Active
Activity (Candida albicans [14]): 63%
LD50 [15]: 1720 mg/kg
Activity [16]: 40%
GI (Candida albicans [17]): 10 µg/mL
GI (Microsporum canis): 0.1 µg/mL
Activity (Candida albicans [18]): 55%
Activity (Salmonella typhimurium [19]): Toxic
Activity (Salmonella typhimurium [20]): Non-toxic
GI (Staphylococcus aureus [21]): 6.25 µg/mL
GI (Enterococcus faecalis): 3.12 µg/mL
LD50 [22]: > 1600 mg/kg
Activity (Salmonella typhimurium [23]): Toxic
Activity (Candida albicans [24]): 65%
Activity (Candida albicans [25]): 85%
Activity (Candida albicans [26]): 83%
Activity (Candida albicans [27]): 40%
LD50 [28]: > 3200 mg/kg
Activity (Salmonella typhimurium [29]): Non-toxic
Activity (Salmonella typhimurium [30]): Toxic
Activity (Salmonella typhimurium [31]): Non-toxic
Activity (Candida albicans [32]): 60%
Activity (Candida albicans [33]): 95%
GI (Streptococcus pyogenes): 0.0016 µg/mL
GI (Nannizzia gypsea): 0.05 µg/mL
Activity (Candida albicans [34]): 85%
Activity (Salmonella typhimurium [35]): Toxic
Activity (Candida albicans [36]): 84%
Activity (Salmonella typhimurium [37]): Non-toxic
Activity (Salmonella typhimurium [38]): Non-toxic
Activity (Salmonella typhimurium [39]): Non-toxic
Activity (Salmonella typhimurium [40]): Toxic
LD50 [41]: > 3200 mg/kg
GI [42]: 0.05 µg/mL
GI (Cryptococcus neoformans): <=1 ug ml-1
GI (Epidermophyton floccosum): 5 µg/mL
Activity (Candida albicans [43]): 80%
GI (Staphylococcus aureus [44]): 12.5 µg/mL
Activity (Candida albicans [45]): 35%
Activity (Candida albicans [46]): 75%
LD50 [47]: 940 mg/kg
Activity (Candida albicans [48]): 75%
Activity (Candida albicans [49]): 60%
Activity (Salmonella typhimurium [50]): Non-toxic

Clc1ccccc1C(c1ccccc1)(c1ccccc1)n1ccnc1 [CLOTRIMAZOLE]
Activity (Candida albicans [6]): 85%
Activity (Candida albicans [33]): 55%
